# pIC50: −log10 of the molar value. Where a name gives a salt, the structure may show the parent alone.
# Tests used:
# [1] = target: T1, EZH2 within the PRC2 complex (Homo sapiens (Human), UniProt Q15910); test: EZH2 methyltransferase SPA, mononucleosome substrate (Assay Protocol 1); format: biochemical; settings: HeLa mononucleosome substrate, 3H-SAM, ≦10 nM approaches limit of detection
# Experimental: Compounds contained herein were evaluated for their ability to inhibit the methyltransferase activity of EZH2 within the PRC2 complex. Human PRC2 complex was prepared by co-expressing each of the 5 member proteins (FLAG-EZH2, EED, SUZ12, RbAp48, AEBP2) in Sf9 cells followed by co-purification. Enzyme activity was measured in a scintillation proximity assay (SPA) where a tritiated methyl group is transferred from 3H-SAM to a lysine residue on Histone H3 of a mononucleosome, purified from HeLa cells. Mononucleosomes were captured on SPA beads and the resulting signal is read on a ViewLux plate reader.
# Part A. Compound Preparation
# • 1. Prepare 10 mM stock of compounds from solid in 100% DMSO. • 2. Set up an 11-point serial dilution (1:3 dilution, top concentration 10 mM) in 100% DMSO for each test compound in a 384 well plate leaving columns 6 and 18 for DMSO controls. • 3. Dispense 100 nL of compound from the dilution plate into reaction plates (Grenier Bio-One, 384-well, Cat#784075). Part B. Reagent Preparation Prepare the following solutions: • 1. 50 mM Tris-HCl, pH 8: Per 1 L of base buffer, combine 1 M Tris-HCl, pH 8 (50 mL) and distilled water (950 mL). • 2. 1× Assay Buffer: Per 10 mL of 1× Assay Buffer, combine 50 mM Tris-HCl, pH 8 (9958 uL), 1 M MgCl2 (20 uL), 2 M DTT (20 uL), and 10% Tween-20 (2 uL) to provide a final concentration of 50 mM Tris-HCl, pH 8, 2 mM MgCl2, 4 mM DTT, 0.002% Tween-20. • 3. 2× Enzyme Solution: Per 10 mL of 2× Enzyme Solution, combine 1× Assay Buffer and PRC2 complex to provide a final enzyme concentration of 10 nM. • 4. SPA Bead Suspension: Per 1 mL of SPA Bead Suspension, combine PS-PEI coated LEADSeeker beads (40 mg) and H2O (1 mL) to provide a final concentration of 40 mg/mL. • 5. 2× Substrate Solution: Per 10 mL of 2× Substrate Solution, combine 1× Assay Buffer (9728.55 uL), 800 ug/mL mononucleosomes (125 uL), 1 mM cold SAM (4 uL), and 7.02 uM 3H-SAM (142.45 uL; 0.55 mCi/mL) to provide a final concentration of 5 ug/mL nucleosomes, 0.2 uM cold SAM, and 0.05 uM 3H-SAM. • 6. 2.67× Quench/Bead Mixture: Per 10 mL of 2.67× Quench/Bead Mixture, combine ddH2O (9358 uL), 10 mM cold SAM (267 uL), 40 mg/mL Bead Suspension (375 uL) to provide a final concentration of 100 uM cold SAM and 0.5 mg/mL SPA beads. Part C. Assay Reaction in 384-well Grenier Bio-One Plates Compound Addition • 1. Dispense 100 nL/well of 100× Compound to test wells (as noted above). • 2. Dispense 100 nL/well of 100% DMSO to columns 6 & 18 for high and low controls, respectively. Assay • 1. Dispense 5 uL/well of 1× Assay Buffer to column 18 (low control reactions). • 2. Dispense 5 uL/well of 2× Enzyme Solution to columns 1-17, 19-24. • 3. Spin assay plates for ˜1 min at 500 rpm. • 4. Stack the assay plates, covering the top plate. • 5. Incubate the compound/DMSO with the enzyme for 30 min at room temperature. • 6. Dispense 5 uL/well of 2× Substrate Solution to columns 1-24. • 7. Spin assay plates for ˜1 min at 500 rpm. • 8. Stack the assay plates, covering the top plate. • 9. Incubate the assay plates at room temperature for 1 hour. Quench/Bead Addition • 1. Dispense 5 uL/well of the 3× Quench/Bead Mixture to columns 1-24. • 2. Seal the top of each assay plate with adhesive TopSeal. • 3. Spin assay plates for ˜1 min at 500 rpm. • 4. Equilibrate the plates for >20 min. Read plates • 1. Read the assay plates on the Viewlux Plate Reader utilizing the 613 nm emission filter with a 300 s read time.
# Reagent addition can be done manually or with automated liquid handler. • The final DMSO concentration in this assay is 1%. • The positive control is in column 6; negative control is in column 18. • Final starting concentration of compounds is 100 µM. Results
# Percent inhibition was calculated relative to the DMSO control for each compound concentration and the resulting values were fit using standard IC50 fitting parameters within the ABASE data fitting software package.
# [2] = target: T1, EZH2 within the PRC2 complex; test: EZH2 methyltransferase SPA, biotinylated histone H3K27 peptide substrate (Assay Protocol 2); format: biochemical; settings: 3H-SAM, ≦10 nM approaches limit of detection
# Procedure, shortened: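 Five-member human PRC2 complex (FLAG-EZH2, EED, SUZ12, RbAp48, AEBP2) co-expressed in Sf9 cells, 1 nM final, with 10 uM biotinylated H3K27 peptide, 0.15 uM 3H-SAM plus 2.85 uM cold SAM, pH 8, 60 min at rt. Quenched with cold SAM; SPA signal; IC50 from 11-point curves vs DMSO.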
# T1 sequence (Q15910 whole entry): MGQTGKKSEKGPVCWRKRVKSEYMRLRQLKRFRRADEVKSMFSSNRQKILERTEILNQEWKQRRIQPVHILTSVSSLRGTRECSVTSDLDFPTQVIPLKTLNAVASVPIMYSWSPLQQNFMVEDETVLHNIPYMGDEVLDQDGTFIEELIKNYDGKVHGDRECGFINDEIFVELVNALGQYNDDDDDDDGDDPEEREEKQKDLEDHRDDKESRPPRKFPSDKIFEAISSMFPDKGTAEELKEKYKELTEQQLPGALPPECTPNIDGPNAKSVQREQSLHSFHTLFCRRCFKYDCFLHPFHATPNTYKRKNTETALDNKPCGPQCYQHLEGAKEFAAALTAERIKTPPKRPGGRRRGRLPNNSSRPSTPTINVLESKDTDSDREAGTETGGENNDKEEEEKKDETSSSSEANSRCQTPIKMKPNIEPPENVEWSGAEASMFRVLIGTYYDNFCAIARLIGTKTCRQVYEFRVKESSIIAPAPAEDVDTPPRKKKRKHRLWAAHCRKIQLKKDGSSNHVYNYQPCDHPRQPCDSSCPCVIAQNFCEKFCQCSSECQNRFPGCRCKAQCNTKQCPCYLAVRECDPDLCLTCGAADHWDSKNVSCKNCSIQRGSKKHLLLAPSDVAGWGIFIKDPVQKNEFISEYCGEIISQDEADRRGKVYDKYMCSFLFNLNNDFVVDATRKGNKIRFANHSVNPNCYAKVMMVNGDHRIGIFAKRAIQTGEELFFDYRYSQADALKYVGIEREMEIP
# T1 sequence (O75530 whole entry partner): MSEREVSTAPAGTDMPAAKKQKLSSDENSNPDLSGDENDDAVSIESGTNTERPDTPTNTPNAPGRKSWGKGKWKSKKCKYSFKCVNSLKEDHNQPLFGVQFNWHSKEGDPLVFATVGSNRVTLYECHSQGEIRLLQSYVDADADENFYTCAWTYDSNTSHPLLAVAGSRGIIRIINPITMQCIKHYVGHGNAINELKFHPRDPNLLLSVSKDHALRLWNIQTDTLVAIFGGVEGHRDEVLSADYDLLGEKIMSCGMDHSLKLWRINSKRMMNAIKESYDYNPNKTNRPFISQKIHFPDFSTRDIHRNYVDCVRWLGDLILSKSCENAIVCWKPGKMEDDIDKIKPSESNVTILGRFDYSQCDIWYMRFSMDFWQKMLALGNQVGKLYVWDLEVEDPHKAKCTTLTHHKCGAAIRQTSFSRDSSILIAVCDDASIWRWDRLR
# T1 sequence (Q15022 whole entry partner): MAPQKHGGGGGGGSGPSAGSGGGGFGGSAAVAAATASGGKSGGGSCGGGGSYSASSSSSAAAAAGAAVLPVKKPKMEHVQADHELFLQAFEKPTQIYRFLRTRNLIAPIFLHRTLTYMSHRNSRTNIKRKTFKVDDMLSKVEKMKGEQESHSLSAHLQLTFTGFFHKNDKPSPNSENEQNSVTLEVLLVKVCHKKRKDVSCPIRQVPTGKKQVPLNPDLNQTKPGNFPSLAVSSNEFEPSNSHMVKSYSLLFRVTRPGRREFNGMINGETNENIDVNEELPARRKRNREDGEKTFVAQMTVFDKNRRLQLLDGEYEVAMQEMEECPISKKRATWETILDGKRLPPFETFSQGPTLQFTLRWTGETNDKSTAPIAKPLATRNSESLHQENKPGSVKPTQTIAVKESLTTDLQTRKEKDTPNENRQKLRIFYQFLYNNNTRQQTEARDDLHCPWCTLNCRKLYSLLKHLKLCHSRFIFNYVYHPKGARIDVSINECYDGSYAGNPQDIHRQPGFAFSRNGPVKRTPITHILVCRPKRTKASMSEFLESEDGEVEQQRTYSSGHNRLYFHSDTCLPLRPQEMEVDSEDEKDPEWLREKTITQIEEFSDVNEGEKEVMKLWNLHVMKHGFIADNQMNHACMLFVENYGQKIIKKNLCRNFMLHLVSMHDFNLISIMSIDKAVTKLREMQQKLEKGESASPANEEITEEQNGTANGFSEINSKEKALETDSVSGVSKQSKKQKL
# T1 sequence (Q09028 whole entry partner): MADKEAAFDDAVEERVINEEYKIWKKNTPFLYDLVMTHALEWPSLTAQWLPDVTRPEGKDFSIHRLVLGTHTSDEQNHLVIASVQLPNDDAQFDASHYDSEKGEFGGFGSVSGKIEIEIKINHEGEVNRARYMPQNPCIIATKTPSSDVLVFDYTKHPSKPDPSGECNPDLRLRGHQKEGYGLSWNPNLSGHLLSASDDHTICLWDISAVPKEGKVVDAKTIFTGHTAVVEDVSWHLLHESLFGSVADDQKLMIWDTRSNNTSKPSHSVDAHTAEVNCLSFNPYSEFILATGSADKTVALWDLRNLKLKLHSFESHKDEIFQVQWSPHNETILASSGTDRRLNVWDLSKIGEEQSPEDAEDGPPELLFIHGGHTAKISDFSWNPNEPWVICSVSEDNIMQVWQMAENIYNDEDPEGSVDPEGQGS
# T1 sequence (Q6ZN18 whole entry partner): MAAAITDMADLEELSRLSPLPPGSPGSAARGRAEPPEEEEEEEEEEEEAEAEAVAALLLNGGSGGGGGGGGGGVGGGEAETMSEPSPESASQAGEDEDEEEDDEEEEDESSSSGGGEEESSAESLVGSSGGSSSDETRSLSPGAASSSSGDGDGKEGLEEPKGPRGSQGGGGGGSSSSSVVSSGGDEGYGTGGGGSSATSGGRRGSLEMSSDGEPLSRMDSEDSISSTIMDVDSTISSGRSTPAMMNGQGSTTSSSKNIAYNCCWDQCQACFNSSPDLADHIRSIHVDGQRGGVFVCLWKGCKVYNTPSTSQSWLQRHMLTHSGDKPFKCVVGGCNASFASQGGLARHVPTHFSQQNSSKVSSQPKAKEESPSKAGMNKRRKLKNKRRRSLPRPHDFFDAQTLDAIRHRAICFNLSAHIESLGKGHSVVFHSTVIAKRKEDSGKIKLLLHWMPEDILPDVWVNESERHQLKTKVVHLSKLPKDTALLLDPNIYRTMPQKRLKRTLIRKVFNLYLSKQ
pIC50 [1],pIC50 [2],SMILES
≥ 8.00,7.70,"CCN(c1scc(C(=O)NCc2c(C)cc(C)[nH]c2=O)c1C)[C@H]1CC[C@@H](N(C)C)CC1 [Example 7, N-((4,6-dimethyl-2-oxo-1,2-dihydropyridin-3-yl)methyl)-5-(((cis)-4-(dimethylamino)cyclohexyl)(ethyl)amino)-4-methylthiophene-3-carboxamide]"
≥ 8.00,7.89,"CCN(c1scc(C(=O)NCc2c(C)cc(C)[nH]c2=O)c1C)[C@H]1CC[C@H](N(C)C)CC1 [Example 8, N-((4,6-dimethyl-2-oxo-1,2-dihydropyridin-3-yl)methyl)-5-(((trans)-4-(dimethylamino)cyclohexyl)(ethyl)amino)-4-methylthiophene-3-carboxamide]"
4.80,≤ 4.00,"Cc1cc(C)c(CNC(=O)c2cnn(CC3CCOCC3)c2C)c(=O)[nH]1 [Example 10, N-((4,6-dimethyl-2-oxo-1,2-dihydropyridin-3-yl)methyl)-5-methyl-1-((tetrahydro-2H-pyran-4-yl)methyl)-1H-pyrazole-4-carboxamide]"
7.80,7.70,"CCN(c1scc(C(=O)NCc2c(C)cc(C)[nH]c2=O)c1C)C1CCN(C(=O)OC(C)(C)C)CC1 [Example 11, tert-Butyl 4-((4-(((4,6-dimethyl-2-oxo-1,2-dihydropyridin-3-yl)methyl)carbamoyl)-3-methylthiophen-2-yl)(ethyl)amino)piperidine-1-carboxylate]"
6.50,5.70,"Cc1cc(C)c(CNC(=O)c2csc(C(C)N3CCC(N(C)C)CC3)c2)c(=O)[nH]1 (stereo not drawn) [Example 13, N-((4,6-dimethyl-2-oxo-1,2-dihydropyridin-3-yl)methyl)-5-(1-(4-(dimethylamino)piperidin-1-yl)ethyl)thiophene-3-carboxamide]"
6.20,5.70,"CCN(c1c(C)c(C(=O)NCc2c(C)cc(C)[nH]c2=O)nn1C)C1CCOCC1 [Example 14, N-[(4,6-dimethyl-2-oxo-1,2-dihydro-3-pyridinyl)methyl]-5-[ethyl(tetrahydro-2H-pyran-4-yl)amino]-1,4-dimethyl-1H-pyrazole-3-carboxamide]"
7.10,6.20,"CCN(c1scc(C(=O)NCc2c(C(F)(F)F)cc(C)[nH]c2=O)c1C)C1CCOCC1 [Example 15, 5-(Ethyl(tetrahydro-2H-pyran-4-yl)amino)-4-methyl-N-((6-methyl-2-oxo-4-(trifluoromethyl)-1,2-dihydropyridin-3-yl)methyl)thiophene-3-carboxamide]"
≥ 8.00,7.60,"CCCc1cc(C)[nH]c(=O)c1CNC(=O)c1csc(N(CC)[C@H]2CC[C@H](N(C)C)CC2)c1C [Example 16, 5-(((trans)-4-(Dimethylamino)cyclohexyl)(ethyl)amino)-4-methyl-N-((6-methyl-2-oxo-4-propyl-1,2-dihydropyridin-3-yl)methyl)thiophene-3-carboxamide]"
6.50,6.20,"CCN(c1scc(C(=O)NCc2c(C)cc(C(F)(F)F)[nH]c2=O)c1C)[C@H]1CC[C@H](N(C)C)CC1 [Example 17, 5-(((trans)-4-(Dimethylamino)cyclohexyl)(ethyl)amino)-4-methyl-N-((4-methyl-2-oxo-6-(trifluoromethyl)-1,2-dihydropyridin-3-yl)methyl)thiophene-3-carboxamide]"
≥ 8.00,7.89,"CCN(c1scc(C(=O)NCc2c(OC)cc(C)[nH]c2=O)c1C)[C@H]1CC[C@H](N(C)C)CC1 [Example 18, 5-(((trans)-4-(Dimethylamino)cyclohexyl)(ethyl)amino)-N-((4-methoxy-6-methyl-2-oxo-1,2-dihydropyridin-3-yl)methyl)-4-methylthiophene-3-carboxamide]"
≥ 8.00,7.70,"CCN(c1sc(Br)c(C(=O)NCc2c(C)cc(C)[nH]c2=O)c1C)C1CCOCC1 [Example 19, 2-Bromo-N-((4,6-dimethyl-2-oxo-1,2-dihydropyridin-3-yl)methyl)-5-(ethyl(tetrahydro-2H-pyran-4-yl)amino)-4-methylthiophene-3-carboxamide]"
6.80,5.80,"Cc1cc(C)c(CNC(=O)c2csc(C(O)C3CCN(C(=O)OC(C)(C)C)CC3)c2C)c(=O)[nH]1 (stereo not drawn) [Example 20, tert-Butyl 4-((4-(((4,6-dimethyl-2-oxo-1,2-dihydropyridin-3-yl)methyl)carbamoyl)-3-methylthiophen-2-yl)(hydroxy)methyl)piperidine-1-carboxylate]"
7.00,6.50,"Cc1cc(C)c(CNC(=O)c2csc(C(O)C3CCNCC3)c2C)c(=O)[nH]1 (stereo not drawn) [Example 21, N-((4,6-dimethyl-2-oxo-1,2-dihydropyridin-3-yl)methyl)-5-(hydroxy(piperidin-4-yl)methyl)-4-methylthiophene-3-carboxamide]"
6.40,5.20,"Cc1cc(C)c(CNC(=O)c2csc(C3CCCN3C3CCOCC3)c2C)c(=O)[nH]1 (stereo not drawn) [Example 22, N-((4,6-Dimethyl-2-oxo-1,2-dihydropyridin-3-yl)methyl)-4-methyl-5-(1-(tetrahydro-2H-pyran-4-yl)pyrrolidin-2-yl)thiophene-3-carboxamide]"
6.30,5.40,"Cc1cc(C)c(CNC(=O)c2csc(-c3cnn(C4CCNCC4)c3)c2C)c(=O)[nH]1 [Example 23, N-((4,6-dimethyl-2-oxo-1,2-dihydropyridin-3-yl)methyl)-4-methyl-5-(1-(piperidin-4-yl)-1H-pyrazol-4-yl)thiophene-3-carboxamide]"
6.60,5.40,"Cc1cc(C)c(CNC(=O)c2csc(C3CCN(C(=O)OC(C)(C)C)C3)c2C)c(=O)[nH]1 (stereo not drawn) [Example 24, tert-Butyl 3-(4-(((4,6-dimethyl-2-oxo-1,2-dihydropyridin-3-yl)methyl)carbamoyl)-3-methylthiophen-2-yl)pyrrolidine-1-carboxylate]"

SMILES,pIC50 [1],pIC50 [2]
"Cc1cc(C)c(CNC(=O)c2cnn(-c3ccccc3)c2C)c(=O)[nH]1 [Example 9, N-((4,6-dimethyl-2-oxo-1,2-dihydropyridin-3-yl)methyl)-5-methyl-1-phenyl-1H-pyrazole-4-carboxamide]",4.70,4.20
"CCN(c1scc(C(=O)NCc2c(C)cc(C)[nH]c2=O)c1C)C1CCNCC1 [Example 12, N-((4,6-dimethyl-2-oxo-1,2-dihydropyridin-3-yl)methyl)-5-(ethyl(piperidin-4-yl)amino)-4-methylthiophene-3-carboxamide hydrochloride]",≥ 8.00,7.70

# — US9505745B2, “Enhancer of zeste homolog 2 inhibitors” (GlaxoSmithKline Intellectual Property (No.2) Limited, priority 2013, dated 2016)
